According to patent US20240132513A1, “BENZAZEPINE DERIVATIVES, COMPOSITIONS, AND METHODS FOR TREATING COGNITIVE IMPAIRMENT” (AGENEBIO, INC., priority 2022, published 2024):
Entries after “also recorded” stand apart in the source; their conditions may differ.

What was measured:
[1] = tested on: aged-impaired (AI) rats; test: Morris water maze behavioral task; assay type: in vivo, rat; details: 100 μg ICV
Protocol: The effects of 6,6 dimethyl-3-(3-hydroxypropyl)thio-1-(thiazol-2-yl)-6,7-dihydro-2-benzothiophen-4(5H)-one on the in vivo spatial memory retention of aged-impaired (AI) rats were assessed in a Morris water maze behavioral task. A water maze is a pool surrounded with a novel set of patterns relative to the maze.
Cognitively impaired aged rats were implanted unilaterally with a cannula into the lateral ventricle. Stereotaxic coordinates were 1.0 mm posterior to bregma, 1.5 mm lateral to midline, and 3.5 mm ventral to the skull surface. After about a week of recovery, the rats were pre-trained in a water maze for 2 days (6 trials per day) to locate a submerged escape platform hidden underneath the surface of the pool, in which the escape platform location varied from day to day. No intracerebroventricular (ICV) infusion was given during pre-training.
After pre-training, rats received ICV infusion of either 100 μg 6,6 dimethyl-3-(3-hydroxypropyl)thio-1-(thiazol-2-yl)-6,7-dihydro-2-benzothiophen-4(5H)-one (n=6) in 5 μl DMSO or vehicle DMSO (n=5) 40 min prior to water maze training and testing. Training consisted of 8 trials per day for 2 days where the hidden escape platform remained in the same location. Rats were given 60 seconds to locate the platform with a 60 seconds inter-trial interval. The rats were given a probe test (120 seconds) 24 hr. after the end of training where the escape platform was removed. During the training, there were 4 blocks, where each block had 4 training trials.
During a test trial 24 hr after training, the escape platform was removed. The search/swim pattern of the rats was used to measure whether the rats remember where the escape platform was located during pre-trial training in order to test for the long-term memory of the rats. In this trial, “target annulus” is a designated area 1.5 times the size of the escape platform around the area where the platform was located during pre-trial training. “Opposite annulus” is a control area of the same size as the size of the target annulus, which is located opposite to the target annulus in the pool. If the rats had good long-term memory, they would tend to search in the area surrounding the location where the platform was during the pre-trial training (i.e., the “target” annulus; and not the “opposite” annulus). “Time in annulus” is the amount of time in seconds that the rat spent in the target or opposite annulus area. “Number (#) of crossings” in annulus is the number of times the rat swam across the target or opposite annulus area.

[2] = molecular target: T1, GABAA α5 receptor (Rattus norvegicus, UniProt P19969); test: GABAA α5 receptor occupancy with Ro 15-4513 tracer; assay type: in vivo, Long Evans rats; details: for % RO (L-655,708 Method): young Long Evans rats; for Ro 15-4513 binding in hippocampus / Ro 15-4513 levels/binding in cerebellum: 0.01-10 mg/kg
T1 construct: from tissue; host or cells: rat brain in vivo; hippocampus versus cerebellum
From the text: Food and water were available ad libitum.

[3] = tested on: aged-impaired (AI) rats; test: Radial Arm Maze (RAM) behavioral task, spatial memory retention; assay type: in vivo, rat
Protocol: […] RAM behavioral tasks were performed on eight AI rats. All five treatment conditions (vehicle and four dosage levels) were tested on all eight rats.
The RAM apparatus used consisted of eight equidistantly-spaced arms. An elevated maze arm (7 cm width×75 cm length) projected from each facet of an octagonal center platform (30 cm diameter, 51.5 cm height). Clear side walls on the arms were 10 cm high and were angled at […] to form a trough. A food well (4 cm diameter, 2 cm deep) was located at the distal end of each arm. Froot Loops™ (Kellogg Company) were used as rewards. Blocks constructed of Plexiglas™ (30 cm height×12 cm width) could be positioned to prevent entry to any arm. Numerous extra maze cues surrounding the apparatus were also provided.
The AI rats were initially subjected to a pre-training test (Chappell et al. Neuropharmacology 37: 481-487, 1998). The pre-training test consisted of a habituation phase (4 days), a training phase on the standard win-shift task (18 days) and another training phase (14 days) in which a brief delay was imposed between presentation of a subset of arms designated by the experimenter (e.g., 5 arms available and 3 arms blocked) and completion of the eight-arm win-shift task (i.e., with all eight arms available).
In the habituation phase, rats were familiarized to the maze for an 8-minute session on four consecutive days. In each of these sessions, food rewards were scattered on the RAM, initially on the center platform and arms and then progressively confined to the arms. After this habituation phase, a standard training protocol was used, in which a food pellet was located at the end of each arm. Rats received one trial each day for 18 days. Each daily trial terminated when all eight food pellets had been obtained or when either 16 choices were made, or 15 minutes had elapsed. After completion of this training phase, a second training phase was carried out in which the memory demand was increased by imposing a brief delay during the trial. At the beginning of each trial, three arms of the eight-arm maze were blocked. Rats were allowed to obtain food on the five arms to which access was permitted during this initial “information phase” of the trial. Rats were then removed from the maze for 60 seconds, during which time the barriers on the maze were removed, thus allowing access to all eight arms. Rats were then placed back onto the center platform and allowed to obtain the remaining food rewards during this “retention test” phase of the trial. The identity and configuration of the blocked arms varied across trials.
The number of “errors” the AI rats made during the retention test phase was tracked. […]

[4] = molecular target: α5-containing GABAA R (Homo sapiens, UniProt P18507+P31644); details: EC20; cited from earlier work
[5] = probe test 24 hr after training
[6] = tracer 1 μg/kg, i.v., after vehicle

T1 sequence (P19969 32-464 limits assumed): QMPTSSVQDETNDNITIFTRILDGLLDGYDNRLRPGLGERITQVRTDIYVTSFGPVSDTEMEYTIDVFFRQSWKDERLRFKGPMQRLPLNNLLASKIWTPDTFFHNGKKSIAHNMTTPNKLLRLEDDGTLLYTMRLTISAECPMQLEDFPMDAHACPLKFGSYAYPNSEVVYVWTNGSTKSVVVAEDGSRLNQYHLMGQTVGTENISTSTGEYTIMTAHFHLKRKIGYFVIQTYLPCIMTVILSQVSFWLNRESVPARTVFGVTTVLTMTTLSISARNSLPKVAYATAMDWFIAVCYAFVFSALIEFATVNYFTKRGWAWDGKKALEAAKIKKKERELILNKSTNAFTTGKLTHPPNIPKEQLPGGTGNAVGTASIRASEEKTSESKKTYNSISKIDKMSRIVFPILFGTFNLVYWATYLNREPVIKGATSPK
α5-containing GABAA R, sequence (P31644 32-462): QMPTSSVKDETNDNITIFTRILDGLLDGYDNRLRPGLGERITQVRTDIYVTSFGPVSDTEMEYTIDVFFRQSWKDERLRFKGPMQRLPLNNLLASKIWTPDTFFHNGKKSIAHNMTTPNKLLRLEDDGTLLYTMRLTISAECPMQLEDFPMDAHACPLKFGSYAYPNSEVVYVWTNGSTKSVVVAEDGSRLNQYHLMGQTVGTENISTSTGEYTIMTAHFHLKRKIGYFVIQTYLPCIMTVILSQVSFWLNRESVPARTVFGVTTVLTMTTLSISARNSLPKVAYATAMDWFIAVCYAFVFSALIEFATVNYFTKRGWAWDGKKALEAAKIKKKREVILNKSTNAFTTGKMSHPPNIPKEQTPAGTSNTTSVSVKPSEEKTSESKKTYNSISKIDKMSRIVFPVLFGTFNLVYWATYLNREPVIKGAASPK
α5-containing GABAA R, sequence (P28472 26-473 partner): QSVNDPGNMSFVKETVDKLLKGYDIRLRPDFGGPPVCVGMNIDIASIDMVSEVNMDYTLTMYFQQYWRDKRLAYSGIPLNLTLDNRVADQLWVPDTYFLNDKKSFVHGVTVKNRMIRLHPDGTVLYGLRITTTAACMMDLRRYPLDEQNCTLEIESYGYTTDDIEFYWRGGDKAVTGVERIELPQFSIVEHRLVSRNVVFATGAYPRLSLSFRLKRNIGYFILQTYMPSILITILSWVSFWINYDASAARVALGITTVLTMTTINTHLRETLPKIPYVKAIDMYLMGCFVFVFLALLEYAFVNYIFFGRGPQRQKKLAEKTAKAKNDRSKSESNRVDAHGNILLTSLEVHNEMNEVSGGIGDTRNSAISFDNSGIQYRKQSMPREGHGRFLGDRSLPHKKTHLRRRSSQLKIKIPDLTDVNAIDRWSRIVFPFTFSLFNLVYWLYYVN
α5-containing GABAA R, sequence (P18507 40-475): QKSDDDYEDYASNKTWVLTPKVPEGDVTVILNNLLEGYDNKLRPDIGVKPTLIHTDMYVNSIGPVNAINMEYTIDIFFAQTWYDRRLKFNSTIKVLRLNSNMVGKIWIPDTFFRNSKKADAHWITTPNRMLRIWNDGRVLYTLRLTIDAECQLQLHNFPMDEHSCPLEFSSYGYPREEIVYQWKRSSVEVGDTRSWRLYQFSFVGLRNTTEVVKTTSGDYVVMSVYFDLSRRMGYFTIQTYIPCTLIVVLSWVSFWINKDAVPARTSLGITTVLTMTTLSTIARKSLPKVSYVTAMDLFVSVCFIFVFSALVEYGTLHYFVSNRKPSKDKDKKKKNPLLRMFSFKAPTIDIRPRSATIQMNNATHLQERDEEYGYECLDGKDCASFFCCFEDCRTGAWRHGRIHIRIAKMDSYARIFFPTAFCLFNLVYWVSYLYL

CC1(C)CC(=O)c2c(SCCCO)sc(-c3nccs3)c2C1 [6,6 dimethyl-3-(3-hydroxypropyl)thio-1-(thiazol-2-yl)-6,7-dihydro-2-benzothiophen-4(5H)-one]
time to find the escape platform ([1]; beginning of training (block 1)): about 24 seconds
time to find the escape platform ([1]; end of training (block 4)): about 9.6 seconds
number of crossings of target annulus compared to opposite annulus [1, 5]: crossed the “target annulus” more often
time in target annulus compared to opposite annulus [1, 5]: spent significantly more time in the target annulus

COC(=O)c1c(-c2ccccc2)cnnc1-c1ccccc1 [methyl 3,5-diphenylpyridazine-4-carboxylate]
% RO (L-655,708 Method) ([2]; 0.01 mg/kg, i.v.): 19.2%
% RO (L-655,708 Method) ([2]; 0.1 mg/kg, i.v.): 16.4%
% RO (L-655,708 Method) ([2]; 1 mg/kg, i.v.): 38.5%
Ro 15-4513 binding in hippocampus ([2]; i.v.): dose-dependently reduced Ro 15-4513 binding in hippocampus; also recorded: blocked the binding of Ro154513 in the hippocampus
Ro 15-4513 levels/binding in cerebellum ([2]; i.v.): without affecting cerebellum levels of Ro 15-4513; also recorded: did not affect binding of Ro15413 in the cerebellum
% RO (L-655,708 Method) ([2]; 10 mg/kg, i.v.): 110.0%
GABAA α5 receptors occupied ([2]; at exposures behaviorally active in aged-impaired rats, hippocampus): about 32%
ED50 of receptor occupancy, ratio method ([2]; i.v.): 1.8 mg/kg
receptor occupancy at 10 mg/kg ([2]; rat, iv, 10 mg/kg): > 90%
average no. of errors ± SEM, retention test ([3]; 3 mg/kg ip, two-hour delay): 1.31±0.40
memory performance relative to vehicle control ([3]; 3 mg/kg ip, two-hour delay): significantly improved memory performance
α5 in vitro efficacy [4]: +27

CCOC(=O)c1ncn2c1Cn1c(C)nnc1-c1cc(OC)ccc1-2 [ethyl 3-methoxy-7-methyl-9H-benzo[f]imidazo[1,5-a][1,2,4]tri]
Ro 15-4513 binding in hippocampus ([2]; i.v.): reduced Ro 15-4513 binding in hippocampus
Ro 15-4513 levels/binding in cerebellum ([2]; i.v.): without affecting cerebellum levels of Ro 15-4513
GABAA α5 receptor occupancy ([2]; 10 mg/kg, i.v.): > 90%
memory performance relative to vehicle control ([3]; 3 mg/kg, four-hour delay): significantly improved memory performance
memory performance relative to vehicle control ([3]; 10 mg/kg, four-hour delay): significantly improved memory performance

CCOC(=O)c1ncn2c1Cn1c(C)nnc1-c1cc(OC)ccc1-2
Ro 15-4513 binding in hippocampus ([2]; i.v.): blocked the binding of Ro154513 in the hippocampus
Ro 15-4513 levels/binding in cerebellum ([2]; i.v.): did not affect binding of Ro15413 in the cerebellum

CCOC(=O)c1ncn2c1CN(C)C(=O)c1cc(N=[N+]=[N-])ccc1-2 [Ro 15-4513]
level of Ro 15-4513 in cerebellum [2, 6]: 0.36 ± 0.02 ng/g
level of Ro 15-4513 in hippocampus [2, 6]: 1.93 ± 0.05 ng/g
levels of Ro 15-4513 in hippocampus compared with cerebellum [2, 6]: > 5 fold
